Data on 33 compounds can be found in US11207325B2, “Triazolopyrimidine compounds and uses thereof” (Novartis AG, priority 2014, dated 2021).

In the assay the test system is H3K27 methylation in G401 cell. Description: ELISA (H3K27 methylation) assay. The format is cell-based. Conditions: Homo sapiens, G-401; ELISA Qualified assay (H3K27 methylation); read-out: (c) IC50 (μM), ELISA Qualified. The source says: ELISA (H3K27 Methylation) Assay
The term IC50 denotes the concentration at which inhibition is half-maximal. On to `Cc1nc(C(=O)N(C)C)ccc1-c1cnc(NCc2c(F)ccc3c2CCO3)n2cnnc12` [Example 199, 5-(5-(((5-fluoro-2,3-dihydrobenzofuran-4-yl)methyl)amino)-[1,2,4]triazolo[4,3-c]pyrimidin-8-yl)-N,N,6-trimethylpicolinamide], for which the IC50 came out at 0.005 µM.
Turning to `Cn1cc(-c2cnc(NCc3c(F)ccc4c3CCO4)n3cnnc23)c(C(F)F)n1` [Example 200, 8-(3-(difluoromethyl)-1-methyl-1H-pyrazol-4-yl)-N-((5-fluoro-2,3-dihydrobenzofuran-4-yl)methyl)-[1,2,4]triazolo[4,3-c]pyrimidin-5-amine], the IC50 came out at 0.003 µM.
For `Cc1ccc(-c2cnc(NCc3c(F)ccc4c3CCO4)n3cnnc23)c(C(F)F)n1` [Example 201, 8-(2-(difluoromethyl)-6-methylpyridin-3-yl)-N-((5-fluoro-2,3-dihydrobenzofuran-4-yl)methyl)-[1,2,4]triazolo[4,3-c]pyrimidin-5-amine] the value was 0.0036 µM; for `Fc1ccc2c(c1CNc1ncc(-c3ccnnc3)c3nncn13)CCO2` [Example 202, N-((5-fluoro-2,3-dihydrobenzofuran-4-yl)methyl)-8-(pyridazin-4-yl)-[1,2,4]triazolo[4,3-c]pyrimidin-5-amine], 0.0206 µM.
On to `Cc1c(-c2cnc(NCc3c(F)ccc4c3CCO4)n3cnnc23)ccc[n+]1[O-]` [Example 204, 3-(5-(((5-fluoro-2,3-dihydrobenzofuran-4-yl)methyl)amino)-[1,2,4]triazolo[4,3-c]pyrimidin-8-yl)-2-methylpyridine 1-oxide], for which the IC50 turned out to be 0.0103 µM.
In the case of `Fc1ccc2c(c1CNc1ncc(-c3cnccn3)c3nncn13)CCO2` [Example 205, N-((5-fluoro-2,3-dihydrobenzofuran-4-yl)methyl)-8-(pyrazin-2-yl)-[1,2,4]triazolo[4,3-c]pyrimidin-5-amine] it was 0.0167 µM; in that of `Fc1ccc2c(c1CNc1ncc(-c3cncnc3)c3nncn13)CCO2` [Example 206, N-((5-fluoro-2,3-dihydrobenzofuran-4-yl)methyl)-8-(pyrimidin-5-yl)-[1,2,4]triazolo[4,3-c]pyrimidin-5-amine], 0.0159 µM; in that of `CN(C)Cc1ccc(-c2cnc(NCc3cccc4occc34)n3cnnc23)cc1` [Example 208, N-(benzofuran-4-ylmethyl)-8-(4-((dimethylamino)methyl)phenyl)-[1,2,4]triazolo[4,3-c]pyrimidin-5-amine], 0.019 µM.
As for `CN1CCN(c2ccc(-c3cnc(NCc4cccc5occc45)n4cnnc34)cc2)CC1` [Example 209, N-(benzofuran-4-ylmethyl)-8-(4-(4-methylpiperazin-1-yl)phenyl)-[1,2,4]triazolo[4,3-c]pyrimidin-5-amine], the IC50 amounted to 0.118 µM.
In the case of `CN(C)Cc1ccc(-c2cnc(NCc3c(F)ccc4occc34)n3cnnc23)cc1` [Example 219, 8-(4-((dimethylamino)methyl)phenyl)-N-((5-fluorobenzofuran-4-yl)methyl)-[1,2,4]triazolo[4,3-c]pyrimidin-5-amine] it was 0.0079 µM; in that of `CN1CCC(S(=O)(=O)c2ccc(-c3cnc(NCc4cccc5occc45)n4cnnc34)cc2)CC1` [Example 220, N-(benzofuran-4-ylmethyl)-8-(4-((1-methylpiperidin-4-yl)sulfonyl)phenyl)-[1,2,4]triazolo[4,3-c]pyrimidin-5-amine], 0.467 µM.
In the case of `Cc1cc(C)c(-c2cnc(NCc3c(F)ccc4c3CCO4)n3cnnc23)cn1` [Example 222, 8-(4,6-dimethylpyridin-3-yl)-N-((5-fluoro-2,3-dihydrobenzofuran-4-yl)methyl)-[1,2,4]triazolo[4,3-c]pyrimidin-5-amine] it was 0.0576 µM; in that of `Cc1nc(CN(C)C)ccc1-c1cnc(NCc2c(F)ccc3c2CCO3)n2cnnc12` [Example 223], 0.0014 µM; in that of `CCc1cc(C)c(-c2cnc(NCc3c(F)ccc4c3CCO4)n3cnnc23)cn1` [Example 224, 8-(6-ethyl-4-methylpyridin-3-yl)-N-((5-fluoro-2,3-dihydrobenzofuran-4-yl)methyl)-[1,2,4]triazolo[4,3-c]pyrimidin-5-amine], 0.0022 µM.
For `Cc1nc(OC2CC2)ncc1-c1cnc(NCc2c(F)ccc3c2CCO3)n2cnnc12` [Example 225, 8-(2-cyclopropoxy-4-methylpyrimidin-5-yl)-N-((5-fluoro-2,3-dihydrobenzofuran-4-yl)methyl)-[1,2,4]triazolo[4,3-c]pyrimidin-5-amine] the value was 0.0045 µM; for `CCOc1ncc(-c2cnc(NCc3c(F)ccc4c3CCO4)n3cnnc23)c(C)n1` [Example 226, 8-(2-ethoxy-4-methylpyrimidin-5-yl)-N-((5-fluoro-2,3-dihydrobenzofuran-4-yl)methyl)-[1,2,4]triazolo[4,3-c]pyrimidin-5-amine], 0.0061 µM.
In the case of `Cn1ncc(-c2cnc(NCc3c(F)ccc4c3CCO4)n3cnnc23)c1CO` [Example 227, (4-(5-(((5-fluoro-2,3-dihydrobenzofuran-4-yl)methyl)amino)-[1,2,4]triazolo[4,3-c]pyrimidin-8-yl)-1-methyl-1H-pyrazol-5-yl)methanol], the IC50 came to 0.0091 µM.
For `Cc1cnc(Cl)cc1-c1cnc(NCc2c(F)ccc3c2CCO3)n2cnnc12` [Example 228, 8-(2-chloro-5-methylpyridin-4-yl)-N-((5-fluoro-2,3-dihydrobenzofuran-4-yl)methyl)-[1,2,4]triazolo[4,3-c]pyrimidin-5-amine] the value was 0.0292 µM.
In the case of `CCc1ccc(-c2cnc(NCc3c(F)ccc4c3CCO4)n3cnnc23)c(C)n1` [Example 229, 8-(6-ethyl-2-methylpyridin-3-yl)-N-((5-fluoro-2,3-dihydrobenzofuran-4-yl)methyl)-[1,2,4]triazolo[4,3-c]pyrimidin-5-amine] it was 0.0027 µM.
`COc1nccc(-c2cnc(NCc3c(F)ccc4c3CCO4)n3cnnc23)c1C` [Example 230, N-((5-fluoro-2,3-dihydrobenzofuran-4-yl)methyl)-8-(2-methoxy-3-methylpyridin-4-yl)-[1,2,4]triazolo[4,3-c]pyrimidin-5-amine]: the IC50 came to 0.0252 µM.
On to `Fc1ccc2c(c1CNc1ncc(-c3ccccn3)c3nncn13)CCO2` [Example 231, N-((5-fluoro-2,3-dihydrobenzofuran-4-yl)methyl)-8-(pyridin-2-yl)-[1,2,4]triazolo[4,3-c]pyrimidin-5-amine], for which the IC50 amounted to 0.0358 µM.
In the case of `Cc1cncc(-c2cnc(NCc3c(F)ccc4c3CCO4)n3cnnc23)c1` [Example 232, N-((5-fluoro-2,3-dihydrobenzofuran-4-yl)methyl)-8-(5-methylpyridin-3-yl)-[1,2,4]triazolo[4,3-c]pyrimidin-5-amine] it was 0.0133 µM; in that of `Cc1cn(-c2cnc(NCc3c(F)ccc4c3CCO4)n3cnnc23)cn1` [Example 233, N-((5-fluoro-2,3-dihydrobenzofuran-4-yl)methyl)-8-(4-methyl-1H-imidazol-1-yl)-[1,2,4]triazolo[4,3-c]pyrimidin-5-amine], 0.002 µM; in that of `OCc1ccc(-c2cnc(NCc3c(F)ccc4c3CCO4)n3cnnc23)cn1` [Example 234, (5-(5-(((5-fluoro-2,3-dihydrobenzofuran-4-yl)methyl)amino)-[1,2,4]triazolo[4,3-c]pyrimidin-8-yl)pyridin-2-yl)methanol], 0.0045 µM.
In the case of `Fc1ccc2c(c1CNc1ncc(F)c3nncn13)CCO2` [Example 235, 8-fluoro-N-((5-fluoro-2,3-dihydrobenzofuran-4-yl)methyl)-[1,2,4]triazolo[4,3-c]pyrimidin-5-amine] it was 0.192 µM.
In the case of `Cc1cn(-c2cnc(NCc3c(F)ccc4c3CCO4)n3cnnc23)c(C)n1` [Example 236, 8-(2,4-dimethyl-1H-imidazol-1-yl)-N-((5-fluoro-2,3-dihydrobenzofuran-4-yl)methyl)-[1,2,4]triazolo[4,3-c]pyrimidin-5-amine] it was 0.0076 µM; in that of `Fc1ccc2c(c1CNc1ncc(-n3cccn3)c3nncn13)CCO2` [Example 237, N-((5-fluoro-2,3-dihydrobenzofuran-4-yl)methyl)-8-(1H-pyrazol-1-yl)-[1,2,4]triazolo[4,3-c]pyrimidin-5-amine], 0.0101 µM; in that of `Cc1ncn(-c2cnc(NCc3c(F)ccc4c3CCO4)n3cnnc23)n1` [Example 238, N-((5-fluoro-2,3-dihydrobenzofuran-4-yl)methyl)-8-(3-methyl-1H-1,2,4-triazol-1-yl)-[1,2,4]triazolo[4,3-c]pyrimidin-5-amine], 0.0179 µM.
For `Cc1cnn(-c2cnc(NCc3c(F)ccc4c3CCO4)n3cnnc23)c1` [Example 239, N-((5-fluoro-2,3-dihydrobenzofuran-4-yl)methyl)-8-(4-methyl-1H-pyrazol-1-yl)-[1,2,4]triazolo[4,3-c]pyrimidin-5-amine], the IC50 amounted to 0.0382 µM.
For `Fc1ccc2c(c1CNc1ncc(-n3ccnc3)c3nncn13)CCO2` [Example 240, N-((5-fluoro-2,3-dihydrobenzofuran-4-yl)methyl)-8-(1H-imidazol-1-yl)-[1,2,4]triazolo[4,3-c]pyrimidin-5-amine], the IC50 is 0.0014 µM.
In the case of `Fc1ccc2c(c1CNc1ncc(-n3cncn3)c3nncn13)CCO2` [Example 241, N-((5-fluoro-2,3-dihydrobenzofuran-4-yl)methyl)-8-(1H-1,2,4-triazol-1-yl)-[1,2,4]triazolo[4,3-c]pyrimidin-5-amine] it was 0.0284 µM; in that of `Cc1ncccc1-c1cnc(NCc2c(F)ccc3c2C(O)CO3)n2cnnc12` (stereo not drawn) [Example 242, 5-fluoro-4-(((8-(2-methylpyridin-3-yl)-[1,2,4]triazolo[4,3-c]pyrimidin-5-yl)amino)methyl)-2,3-dihydrobenzofuran-3-ol], 0.0634 µM; in that of `OCc1ncccc1-c1cnc(NCc2c(F)ccc3c2C(O)CO3)n2cnnc12` (stereo not drawn) [Example 243, 5-fluoro-4-(((8-(2-(hydroxymethyl)pyridin-3-yl)-[1,2,4]triazolo[4,3-c]pyrimidin-5-yl)amino)methyl)-2,3-dihydrobenzofuran-3-ol], 0.0409 µM.
